Measured values from patent US20150150768A1, “Furan Based Composition” (Los Alamos National Security LLC, priority 2013, published 2015).
Like-named read-outs stand apart in the source and are kept apart here.

Experiments:
[1] = Solubility of system at 1 wt % with hardness; format: physicochemical
Source text: Stock solutions of all species were made at 1% by weight in deionized water. […] […] […] Additionally a modified LAS (MLAS) was chosen for comparison.

[2] = Dynamic interfacial tension analysis (dIFT), ascending canola oil drop in aqueous surfactant solution; format: physicochemical; details: 200 ppm surfactant, pH 8.3-8.5, canola oil
Description: Method—Dynamic Interfacial Tension Analysis (dIFT) Dynamic Interfacial Tension analysis was performed on a Krüss® DVT30 Drop Volume Tensiometer (Krüss USA, Charlotte, N.C.). The instrument was configured to measure the interfacial tension of an ascending oil drop in the aqueous surfactant solution. The oil used was canola oil (Crisco Pure Canola Oil manufactured by The J.M. Smucker Company). The aqueous surfactant and oil phases were temperature controlled at 21.1° C. (+/−1° C.), via a recirculating water temperature controller attached to the tensiometer. A dynamic interfacial tension curve was generated by dispensing the oil drops into the aqueous surfactant phase from an ascending capillary with an internal diameter of 0.2540 mm, over a range of flow rates and measuring the interfacial tension at each flow rate. Data is generated at oil dispensing flow rates of 500 μL/min to 1 μL/min with 2 flow rates per decade on a logarithmic scale (7 flow rates measured in this instance). Interfacial tension was measured on three oil drops per flow rate and then averaged. Interfacial tension was reported in units of mN/m. Surface age of the oil drops at each flow rate is also recorded and plots can be generated either of interfacial tension (y-axis) versus oil flow rate (x-axis) or interfacial tension (y-axis) versus oil drop surface age (x-axis). […] Example of analysis of a 200 ppm surfactant concentration, with water hardness (3:1 Ca:Mg) of 6 or 20 grains per gallon (gpg) as noted, 21.1° C., pH 8.3-8.5: Sample was analyzed as described above. Density settings for 21.1° C. were set at 0.917 g/ml for Canola Oil and 0.998 g/ml for aqueous surfactant phase (assumed to be the same as water since dilute solution). To a 100 ml volumetric flask was added 2.00 mL of 1% (wt/wt) Surfactant solution in deionized water and the volumetric is then filled to the mark with 6.12 gpg water for target 6 gpg solution or 20.408 gpg water for target 20 gpg solution, (3:1 CaCl2:MgCl2 solution) and mixed well. The solution was transferred to a beaker and the pH adjusted to 8.3-8.5 by addition of a few drops of 0.1 N NaOH or 0.1 N H2SO4. The solution is then loaded into the tensiometer measurement cell and analyzed. Total time from addition of hardness to surfactant to time loaded into tensiometer is 5 minutes. The following surfactants were analyzed via dIFT measurements. Surfactants were analyzed at a level of 200 ppm. Analysis conditions are in water of both 6 and 20 gpg Calcium/Magnesium water hardness level (3:1 calcium:magnesium), 21.1° C. and adjusted to pH 8.3-8.5.

[3] = 1% solution by weight in deionized water
[4] = 1% solution by weight in deionized water, heated to approximately 55° C.
[5] = aliquot of 1% solution diluted to 200 ppm with 6.122 gpg water
[6] = solution hardness 6 gpg (3:1 Calcium:Magnesium)
[7] = solution hardness 20 gpg (3:1 Calcium:Magnesium)

| Compound | IFT @ 1 μL/min Oil Flowrate, 21.1° C. [2, 6] [mN/m] | IFT @ 1 μL/min Oil Flowrate, 21.1° C. [2, 7] [mN/m] | Soluble after addition of 6 gpg hardness (for at least 30 minutes) [1] | Soluble after heating to ≈55° C. [1] | Soluble at Room Temperature [1] | Soluble at Room Temperature [1, 3] | Soluble after heating to ≈55° C. [1, 4] | Soluble after addition of 6 gpg hardness (for at least 30 minutes) [1, 5] |
| --- | --- | --- | --- | --- | --- | --- | --- | --- |
| CCCCCCCCCCCCc1ccc(S(=O)(=O)[O-])o1.[Na+] [C12 1-furan AFS, sodium 5-dodecanfuran-2-sulfonate] | 0.31 | 0.25 | – | – | – | – | – | – |
| CCCCCCCCCCC(C)c1ccc(S(=O)(=O)O)cc1 (centres unmarked) [C12 2-phenyl LAS, reference compound] | – | – | – | – | – | No | Yes | did not remain soluble and No |
| CCCCCCCCCCCCCc1ccc(S(=O)(=O)[O-])o1.[Na+] [C13 1-furan AFS, sodium 5-tridecanfuran-2-sulfonate] | 0.08 | 0.08 | Yes | Yes | No | – | – | – |
| sodium 5-dodecanfuran-2-sulfonate [C12 1-furan AFS] | – | – | – | – | – | No | Yes | Yes |

Now from value to compound, other results behind:

| IFT @ 1 μL/min Oil Flowrate, 21.1° C. [2, 6] [mN/m] | IFT @ 1 μL/min Oil Flowrate, 21.1° C. [2, 7] [mN/m] | Soluble after addition of 6 gpg hardness (for at least 30 minutes) [1] | Soluble after heating to ≈55° C. [1] | Soluble at Room Temperature [1] | Compound | Soluble at Room Temperature [1, 3] | Soluble after heating to ≈55° C. [1, 4] | Soluble after addition of 6 gpg hardness (for at least 30 minutes) [1, 5] |
| --- | --- | --- | --- | --- | --- | --- | --- | --- |
| 7.25 | 4.03 | – | – | – | CCCCCCCCCC(C)c1ccc(S(=O)(=O)[O-])o1.[Na+] (centres unmarked) [C11 2-furan AFS, sodium 5-(undecan-2-yl)furan-2-sulfonate] | Yes | Yes | Yes |
| 1.15 | 0.94 | – | – | – | CCCCCCCCCCC(C)c1ccc(S(=O)(=O)[O-])o1.[Na+] (centres unmarked) [C12 2-furan AFS, sodium 5-(dodecan-2-yl)furan-2-sulfonate] | Yes | Yes | Yes |
